What was measured:
[1] = tested on: Pyrethroid-susceptible horn fly (Haematobia irritans); test: Treated filter paper test against adult pyrethroid-susceptible horn fly; settings: corrected for control mortality
Procedure: (§1) Test doses are expressed as µg of test substance per cm^2 of filter paper. • 1) Prepare solutions of test compound in acetone such that 800 or 1000 µL contains the amount necessary to obtain the desired dose rate. • 2) Pipette 800 or 1000 µL of test solution onto filter paper. • 3) Filter papers are dried under a fume hood. • 4) When dry, filter papers are placed in the petri dish tops. Dishes are generally held about 24 hours before test organism is added. • 5) Two- to five-day-old horn flies (pyrethroid-susceptible or -resistant) which have had two or more blood meals are used in the assay. Flies are collected into a small vial from the holding cage. Vials are then chilled in a freezer for about 4 minutes to immobilize the flies. Immobilized flies are then distributed to petri dish bottoms, 12 to 25 flies per dish, then dishes are closed and inverted. • 6) As soon as the flies become mobile (about 5 minutes), they are examined to detect any flies that are dead or injured. This number is subtracted from total number of flies in the dish. • 7) Petri dishes are held at room temperature and examined at the desired time intervals which might be 10 minutes to 6 hours. • 8) All dead flies are recorded at each examination time. […] 10) Percent mortality at any time period is calculated using the following formula: (Number of dead flies - number dead @ 5 min)/(Total number of flies - number dead @ 5 min)x 100 [formula] Percent mortality is then corrected for control mortality using Abbot's formula.

[2] = tested on: Pyrethroid-resistant horn fly (Haematobia irritans); test: Treated filter paper test against adult pyrethroid-resistant horn fly; settings: corrected for control mortality
Procedure: as §1

What does the source list for `F/C(=C\Cc1ccc(F)c(Oc2ccccc2)c1)C(c1ccc(Cl)cc1)C1CC1` (centres unmarked) [Compound 5, 1-[1-(p-Chlorophenyl)-2-fluoro-4-(4-fluoro-3-phenoxyphenyl)-2-butenyl]cyclopropane, (Z)-]?
mortality at 0.156 µg/cm2 ([1]; dose 0.1560 µg/cm^2, 6 hours): 0%; mortality at 0.3125 µg/cm2 ([1]; dose 0.3125 µg/cm^2, 6 hours): 5%; mortality at 0.625 µg/cm2 ([1]; dose 0.625 µg/cm^2, 6 hours): 27%; mortality at 1.25 µg/cm2 ([1]; dose 1.25 µg/cm^2, 6 hours): 88%; mortality at 2.5 µg/cm2 ([1]; dose 2.50 µg/cm^2, 6 hours): 98%; mortality at 5 µg/cm2 ([1]; dose 5.00 µg/cm^2, 6 hours): 100%; mortality at 1.25 µg/cm2 ([2]; dose 1.25 µg/cm^2, 6 hours): 0%; mortality at 2.5 µg/cm2 ([2]; dose 2.50 µg/cm^2, 6 hours): 1%; mortality at 5 µg/cm2 ([2]; dose 5.00 µg/cm^2, 6 hours): 7%; mortality at 10 µg/cm2 ([2]; dose 10.0 µg/cm^2, 6 hours): 33%; mortality at 20 µg/cm2 ([2]; dose 20.0 µg/cm^2, 6 hours): 93%
